Assay results as given in ChEMBL document CHEMBL1146899, “Redefining the structure-activity relationships of 2,6-methano-3-benzazocines. 4. Opioid receptor binding properties of 8-[N-(4'-phenyl)-phenethyl)carboxamido] analogues of cyclazocine and ethylketocycalzocine” (J Med Chem, 2006).
Calls of active or inactive are those of the source. No cut-off for these calls is given here.

Experiments:
Mu-type opioid receptor = Mu-type opioid receptor (Homo sapiens, UniProt P35372); assay: Displacement of [3H]DAMGO from human mu opioid receptor expressed in CHO cells; type: cell-based
Sequence of Mu-type opioid receptor (P35372 whole entry): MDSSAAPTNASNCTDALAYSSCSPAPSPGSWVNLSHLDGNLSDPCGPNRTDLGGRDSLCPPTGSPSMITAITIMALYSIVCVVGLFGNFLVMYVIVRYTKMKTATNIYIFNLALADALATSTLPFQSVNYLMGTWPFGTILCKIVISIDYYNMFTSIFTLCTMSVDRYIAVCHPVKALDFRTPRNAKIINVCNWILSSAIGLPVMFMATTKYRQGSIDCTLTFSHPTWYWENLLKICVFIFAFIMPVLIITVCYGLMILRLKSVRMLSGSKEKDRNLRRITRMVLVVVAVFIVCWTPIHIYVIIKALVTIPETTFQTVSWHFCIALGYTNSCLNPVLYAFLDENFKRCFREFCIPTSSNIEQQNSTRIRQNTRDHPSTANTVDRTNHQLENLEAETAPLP

[1] = molecular target: Delta-type opioid receptor (Homo sapiens, UniProt P41143); assay: Displacement of [3H]naltrindole from human delta opioid receptor expressed in CHO cells; type: cell-based
Sequence of Delta-type opioid receptor (P41143 whole entry): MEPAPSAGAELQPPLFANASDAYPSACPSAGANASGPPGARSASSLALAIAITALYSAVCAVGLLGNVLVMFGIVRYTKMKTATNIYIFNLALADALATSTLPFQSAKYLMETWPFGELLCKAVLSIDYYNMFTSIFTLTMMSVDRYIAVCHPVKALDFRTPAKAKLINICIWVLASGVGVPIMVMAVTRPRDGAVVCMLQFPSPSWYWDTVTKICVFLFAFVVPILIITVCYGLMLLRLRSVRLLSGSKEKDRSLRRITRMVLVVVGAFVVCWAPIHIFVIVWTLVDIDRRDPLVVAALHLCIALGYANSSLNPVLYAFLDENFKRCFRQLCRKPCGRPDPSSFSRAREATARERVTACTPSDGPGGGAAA

[2] = molecular target: Kappa-type opioid receptor (Homo sapiens, UniProt P41145); assay: biochemical; type: cell-based, CHO
Sequence of Kappa-type opioid receptor (P41145 whole entry): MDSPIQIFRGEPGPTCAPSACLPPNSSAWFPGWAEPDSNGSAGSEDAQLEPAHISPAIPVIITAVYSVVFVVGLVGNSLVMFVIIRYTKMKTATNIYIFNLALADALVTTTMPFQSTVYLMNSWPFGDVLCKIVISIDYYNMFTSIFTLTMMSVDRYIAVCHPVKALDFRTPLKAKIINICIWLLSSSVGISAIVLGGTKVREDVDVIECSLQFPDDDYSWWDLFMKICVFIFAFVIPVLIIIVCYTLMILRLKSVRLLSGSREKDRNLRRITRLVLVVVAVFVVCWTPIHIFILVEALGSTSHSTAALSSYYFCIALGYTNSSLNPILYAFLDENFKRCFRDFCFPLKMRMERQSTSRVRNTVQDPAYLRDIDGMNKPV
Description: Displacement of [3H]U-69593 from human kappa opioid receptor expressed in CHO cells

Mus musculus = assay: Antinociceptive activity in mouse at 1 mg/kg, ip; type: functional, organism-based; design: dose 1 mg/kg

| SMILES | Ki (Mu-type opioid receptor) [nM] | Ki [1] [nM] | Ki [2] [nM] | Activity (Mus musculus) |
| --- | --- | --- | --- | --- |
| C[C@H]1C2Cc3ccc(C(=O)Nc4ccccc4)cc3[C@@]1(C)CCN2CC1CC1 | 840 | 2100 | 270 | – |
| C[C@H]1C2Cc3ccc(C(N)=O)cc3[C@@]1(C)CCN2CC1CC1 | – | 5.2 | – | Active |
| CC[C@@]12CCN(CC3CC3)C(C(=O)c3ccc(C(N)=O)cc31)[C@@H]2C | 2.1 | 23 | 0.47 | – |
| C[C@H]1C2Cc3ccc(C(=O)NCc4ccc(-c5ccccc5)cc4)cc3[C@@]1(C)CCN2CC1CC1 (mixture of isomers) | 11 | 170 | 26 | – |
| C[C@H]1C2Cc3ccc(C(=O)NCCc4ccccc4)cc3[C@@]1(C)CCN2CC1CC1 (mixture of isomers) | 3.5 | 59 | 1.7 | – |
| C[C@H]1C2Cc3ccc(C(=O)NCCCc4ccccc4)cc3[C@@]1(C)CCN2CC1CC1 (mixture of isomers) | 2.5 | 47 | 3 | – |
| C[C@H]1C2Cc3ccc(C(=O)NCc4ccccc4)cc3[C@@]1(C)CCN2CC1CC1 (mixture of isomers) | 27 | 210 | 36 | – |
| CC[C@@]12CCN(CC3CC3)C(C(=O)c3ccc(C(=O)NCCc4ccc(-c5ccccc5)cc4)cc31)[C@@H]2C (mixture of isomers) | 3.1 | 3.9 | 1.3 | – |
| C[C@H]1C2Cc3ccc(C(=O)Nc4ccc(-c5ccccc5)cc4)cc3[C@@]1(C)CCN2CC1CC1 (mixture of isomers) | 18 | 110 | 27 | – |
| C[C@H]1C2Cc3ccc(C(=O)N(C)CCc4ccc(-c5ccccc5)cc4)cc3[C@@]1(C)CCN2CC1CC1 (racemic) | 6.7 | 12 | 11 | – |
